Test results published in paper PMC9343605, “Structural insights into ligand recognition and selectivity of somatostatin receptors” (Cell Research, 2022).

Key:
[1] = target: T1, SSTR2 (Homo sapiens, UniProt P30874, T212A); assay: Whole cell binding assay, SSTR2, competition with 125I-Tyr11-SST14, CHO-K1; conditions: SSTR2 mutant T212^5.42A; mean ± SEM;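 note: Cell-bound radioactivity in lysed CHO-K1 cells read by scintillation counting, each mutation introduced singly into the WT receptor, at least three independent experiments run in technical triplicate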
Description: (§1) For SSTR2 and SSTR4, CHO-K1 cells were cultured in F12 medium with 10% FBS and seeded at a density of 30,000 cells/well in Isoplate-96 plates (PerkinElmer). Twenty-four hours after transfection with the WT or mutant SSTR2/SSTR4, CHO-K1 cells were washed twice and incubated with blocking buffer (F12 supplemented with 25 mM HEPES and 0.1% (w/v) BSA, pH 7.4) for 2 h at 37 °C. […] Following incubation, cells were washed three times with ice-cold PBS and lysed by 50 μL lysis buffer (PBS supplemented with 20 mM Tris-HCl, 1% Triton X-100, pH 7.4). The radioactivity was subsequently counted (counts/min, CPM) in a scintillation counter (MicroBeta[2] Plate Counter, PerkinElmer) using a scintillation cocktail (OptiPhaseSuperMix, PerkinElmer). Data were analyzed by nonlinear regression using GraphPad PRISM 8.
(§2) aMutants represent that all mutations were introduced separately into the WT receptors
and expressed in CHO K1 cells.
(§3) bThe IC50 ratio was shown as IC50(mutant)/IC50(WT), indicating the shift between the WT
(§4) and mutant curves, reflecting the effect of the mutations on ligand binding.
(§5) cData are shown as mean ± S.E.M. form at least three independent experiments
(§6) performed in technical triplicate. One-way ANOVA was performed followed by
(§7) Dunnett’s post-test and compared with WT.
(§8) d The span is defined as the window between the maximal agonists response (Emax) and
(§9) e Sample size; the number of independent experiments performed in technical triplicate.

[2] = target: T2, SSTR2 (Homo sapiens, UniProt P30874, Y302A); assay: as above; conditions: SSTR2 mutant Y302^7.43A; mean ± SEM
Description: as §1, §2
and expressed in CHO K1 cells.
as §3, §4, §5, §6, §7, §8, §9

[3] = target: T3, SSTR2 (Homo sapiens, UniProt P30874, S316D/V106E); assay: cAMP accumulation assay (agonist-induced inhibition of forskolin-stimulated cAMP), SSTR2, HEK293F; type: cell-based; conditions: Construct 2* SSTR2; mean ± SEM;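 note: transiently transfected cells exposed to 2 µM forskolin and a ligand concentration series for 40 min at room temperature in IBMX-containing HBSS, then cAMP quantified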
T3 construct: expressed in transfected cells; host or cells: HEK293F
Description: (§10) HEK293F cells were transiently transfected with WT or mutant SSTR2/SSTR4 using transfection reagent (PEI MAX 2000, Polysciences) and incubated at 37 °C in 5% CO2. Forty-eight hours after transfection, cells were centrifuged and resuspended in stimulation buffer (Hanks’ balanced salt solution (HBSS) supplemented with 5 mM HEPES, 0.5 mM IBMX and 0.1% (w/v) bovine serum albumin (BSA), pH 7.4) to a density of 200,000 cells/mL and added to 384-well white plates (PerkinElmer, 1000 cells/well). cAMP accumulation was measured by a LANCE Ultra cAMP kit (PerkinElmer) according to the manufacturer’s instructions. In brief, transfected cells were incubated for 40 min in stimulation buffer with 2.5 μL forskolin (SSTR2: 2 μM; SSTR4: 4 μM) and gradient concentration of ligand at RT. The reactions were stopped by addition of lysis buffer containing 5 μL Eu-cAMP tracer and 5 μL ULight-anti-cAMP. Plates were then incubated for 60 min at RT and time-resolved FRET signals were measured at 620 nm and 665 nm by an EnVision multilabel plate reader (PerkinElmer). Data were analyzed in GraphPad PRISM 8 and all values were normalized to the WT for each ligand. All outcomes were repeated at least three times.
(§11) aMutants represent that mutations were introduced separately into the WT receptors and
(§12) transiently expressed in HEK 293F cells.
(§13) bThe EC50 ratio was shown as EC50(mutant)/EC50(WT), indicating the shift between the WT
(§14) and mutant curves, reflecting the effect of the mutations on receptor signaling.
(§15) cData are shown as mean ± S.E.M. from at least three independent experiments
as §6
(§16) Dunnett’s post-test and compared with WT. The P value was defined as: *P<0.05;
as §8, §9
(§17) f Receptor expression level of HEK 293F cells was determined independently by flow
(§18) cytometry with anti-FLAG antibody and shown as per cent compared to the WT.

[4] = tested on: SSTR2; assay: as above; type: cell-based, human; conditions: EC50(mutant)/EC50(WT)
Description: as §10, §11, §12, §13, §14, §15, §6, §16, §8, §9, §17, §18

[5] = target: T4, SSTR2 (Homo sapiens, UniProt P30874, V298A); assay: as above; type: cell-based; conditions: SSTR2 mutant V298^7.39A; mean ± SEM
T4 construct: expressed in transfected cells; host or cells: HEK293F
Description: as §10, §11, §12, §13, §14, §15, §6, §16, §8, §9, §17, §18

[6] = target: T5, SSTR2 (Homo sapiens, UniProt P30874, K291A); assay: as above; type: cell-based; conditions: SSTR2 mutant K291^7.32A; mean ± SEM
T5 construct: expressed in transfected cells; host or cells: HEK293F
Description: as §10, §11, §12, §13, §14, §15, §6, §16, §8, §9, §17, §18

[7] = target: T6, SSTR2 (Homo sapiens, UniProt P30874, P286A); assay: as above; type: cell-based; conditions: SSTR2 mutant P286^ECL3A; mean ± SEM
T6 construct: expressed in transfected cells; host or cells: HEK293F
Description: as §10, §11, §12, §13, §14, §15, §6, §16, §8, §9, §17, §18

[8] = target: T7, SSTR2 (Homo sapiens, UniProt P30874, N276A); assay: as above; type: cell-based; conditions: SSTR2 mutant N276^6.55A; mean ± SEM
T7 construct: expressed in transfected cells; host or cells: HEK293F
Description: as §10, §11, §12, §13, §14, §15, §6, §16, §8, §9, §17, §18

[9] = target: T8, SSTR2 (Homo sapiens, UniProt P30874, I284A); assay: as above; type: cell-based; conditions: SSTR2 mutant I284^ECL3A; mean ± SEM
T8 construct: expressed in transfected cells; host or cells: HEK293F
Description: as §10, §11, §12, §13, §14, §15, §6, §16, §8, §9, §17, §18

[10] = target: SSTR2 (Homo sapiens, UniProt P30874, F272A); assay: as above; type: cell-based; design: expressed in transfected cells; host or cells: HEK293F; conditions: SSTR2 mutant F272^6.51A; mean ± SEM
Description: as §10, §11, §12, §13, §14, §15, §6, §16, §8, §9, §17, §18

[11] = target: SSTR2 (Homo sapiens, UniProt P30874, D122A); assay: as above; type: cell-based; design: expressed in transfected cells; host or cells: HEK293F; conditions: SSTR2 mutant D122^3.32A; mean ± SEM
Description: as §10, §11, §12, §13, §14, §15, §6, §16, §8, §9, §17, §18

[12] = target: T1, SSTR2; assay: as above; type: cell-based; design: expressed in transfected cells; host or cells: HEK293F; conditions: SSTR2 mutant T212^5.42A; mean ± SEM
Description: as §10, §11, §12, §13, §14, §15, §6, §16, §8, §9, §17, §18

[13] = target: SSTR2 (Homo sapiens, UniProt P30874, Y205A); assay: as above; type: cell-based; design: expressed in transfected cells; host or cells: HEK293F; conditions: SSTR2 mutant Y205^5.35A
Description: as §10, §11, §12, §13, §14, §15, §6, §16, §8, §9, §17, §18

[14] = target: SSTR2 (Homo sapiens, UniProt P30874, Q102A); assay: as above; type: cell-based; design: expressed in transfected cells; host or cells: HEK293F; conditions: SSTR2 mutant Q102^2.63A; mean ± SEM
Description: as §10, §11, §12, §13, §14, §15, §6, §16, §8, §9, §17, §18

[15] = target: SSTR2 (Homo sapiens, UniProt P30874); assay: as above; type: cell-based; design: expressed in transfected cells; host or cells: HEK293F; conditions: WT SSTR2
Description: as §10, §11, §12, §13, §14, §15, §6, §16, §8, §9, §17, §18

[16] = target: SSTR2 (Homo sapiens, UniProt P30874, F294A); assay: as above; type: cell-based; design: expressed in transfected cells; host or cells: HEK293F; conditions: SSTR2 mutant F294^7.35A; mean ± SEM
Description: as §10, §11, §12, §13, §14, §15, §6, §16, §8, §9, §17, §18

[17] = target: SSTR2 (Homo sapiens, UniProt P30874, Q126A); assay: as above; type: cell-based; design: expressed in transfected cells; host or cells: HEK293F; conditions: SSTR2 mutant Q126^3.36A; mean ± SEM
Description: as §10, §11, §12, §13, §14, §15, §6, §16, §8, §9, §17, §18

[18] = target: SSTR2 (Homo sapiens, UniProt P30874, T194A); assay: as above; type: cell-based; design: expressed in transfected cells; host or cells: HEK293F; conditions: SSTR2 mutant T194^ECL2A; mean ± SEM
Description: as §10, §11, §12, §13, §14, §15, §6, §16, §8, §9, §17, §18

[19] = target: T2, SSTR2; assay: as above; type: cell-based; design: expressed in transfected cells; host or cells: HEK293F; conditions: SSTR2 mutant Y302^7.43A; mean ± SEM
Description: as §10, §11, §12, §13, §14, §15, §6, §16, §8, §9, §17, §18

[20] = target: SSTR2 (Homo sapiens, UniProt P30874, F275A); assay: as above; type: cell-based; design: expressed in transfected cells; host or cells: HEK293F; conditions: SSTR2 mutant F275^6.54A; mean ± SEM
SSTR2 (Homo sapiens, UniProt P30874, F275A), sequence (P30874 whole entry F275A): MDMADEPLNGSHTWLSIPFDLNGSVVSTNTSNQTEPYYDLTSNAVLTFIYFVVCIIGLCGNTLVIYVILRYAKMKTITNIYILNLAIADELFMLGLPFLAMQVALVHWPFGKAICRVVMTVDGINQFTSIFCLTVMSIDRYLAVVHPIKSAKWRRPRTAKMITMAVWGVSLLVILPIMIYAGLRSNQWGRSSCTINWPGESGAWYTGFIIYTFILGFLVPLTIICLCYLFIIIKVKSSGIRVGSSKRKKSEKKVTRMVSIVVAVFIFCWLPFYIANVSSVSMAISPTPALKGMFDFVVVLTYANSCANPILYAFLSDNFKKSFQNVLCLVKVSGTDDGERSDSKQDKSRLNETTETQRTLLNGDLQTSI
Description: as §10, §11, §12, §13, §14, §15, §6, §16, §8, §9, §17, §18

T1 sequence (P30874 whole entry T212A): as the sequence (P30874 whole entry F275A) above, with T212A, A275F counted along it
T2 sequence (P30874 whole entry Y302A): as the sequence (P30874 whole entry F275A) above, with A275F, Y302A counted along it
SSTR2 (Homo sapiens, UniProt P30874), sequence (P30874 whole entry): as the sequence (P30874 whole entry F275A) above, with A275F counted along it
T4 sequence (P30874 whole entry V298A): as the sequence (P30874 whole entry F275A) above, with A275F, V298A counted along it
SSTR2 (Homo sapiens, UniProt P30874, T194A), sequence (P30874 whole entry T194A): as the sequence (P30874 whole entry F275A) above, with T194A, A275F counted along it
T7 sequence (P30874 whole entry N276A): as the sequence (P30874 whole entry F275A) above, with A275F, N276A counted along it
SSTR2 (Homo sapiens, UniProt P30874, F272A), sequence (P30874 whole entry F272A): as the sequence (P30874 whole entry F275A) above, with F272A, A275F counted along it
SSTR2 (Homo sapiens, UniProt P30874, Q126A), sequence (P30874 whole entry Q126A): as the sequence (P30874 whole entry F275A) above, with Q126A, A275F counted along it
T8 sequence (P30874 whole entry I284A): as the sequence (P30874 whole entry F275A) above, with A275F, I284A counted along it
SSTR2 (Homo sapiens, UniProt P30874, Y205A), sequence (P30874 whole entry Y205A): as the sequence (P30874 whole entry F275A) above, with Y205A, A275F counted along it
T6 sequence (P30874 whole entry P286A): as the sequence (P30874 whole entry F275A) above, with A275F, P286A counted along it
T3 sequence (P30874 1-359 V106E/S316D): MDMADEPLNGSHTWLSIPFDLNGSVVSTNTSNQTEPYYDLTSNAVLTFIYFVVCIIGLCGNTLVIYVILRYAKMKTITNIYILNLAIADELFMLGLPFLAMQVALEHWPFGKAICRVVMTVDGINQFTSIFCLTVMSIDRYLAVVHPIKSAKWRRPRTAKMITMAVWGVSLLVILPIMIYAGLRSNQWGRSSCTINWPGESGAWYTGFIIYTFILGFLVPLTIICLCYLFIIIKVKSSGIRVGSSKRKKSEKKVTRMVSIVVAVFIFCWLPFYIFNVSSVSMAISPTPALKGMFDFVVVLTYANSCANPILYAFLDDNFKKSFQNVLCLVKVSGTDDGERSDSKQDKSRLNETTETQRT
SSTR2 (Homo sapiens, UniProt P30874, Q102A), sequence (P30874 whole entry Q102A): as the sequence (P30874 whole entry F275A) above, with Q102A, A275F counted along it
SSTR2 (Homo sapiens, UniProt P30874, F294A), sequence (P30874 whole entry F294A): as the sequence (P30874 whole entry F275A) above, with A275F, F294A counted along it
SSTR2 (Homo sapiens, UniProt P30874, D122A), sequence (P30874 whole entry D122A): as the sequence (P30874 whole entry F275A) above, with D122A, A275F counted along it
T5 sequence (P30874 whole entry K291A): as the sequence (P30874 whole entry F275A) above, with A275F, K291A counted along it

Span [1]: 94±5 % of WT
pIC50 ± SEM [1]: 8.49±0.11
Span [2]: 15±2 % of WT
Span [3]: 76±6 % of WT
pEC50 ± SEM [3]: 9.28±0.17
EC50 ratio ([4]; Construct 2* SSTR2): 2
EC50 ratio ([4]; SSTR2 mutant D122^3.32A): 191
EC50 ratio ([4]; SSTR2 mutant F208^5.38A): 2
EC50 ratio ([4]; SSTR2 mutant F272^6.51A): 64
EC50 ratio ([4]; SSTR2 mutant F275^6.54A): 5
EC50 ratio ([4]; SSTR2 mutant F294^7.35A): 20
EC50 ratio ([4]; SSTR2 mutant I284^ECL3A): 4
EC50 ratio ([4]; SSTR2 mutant K291^7.32A): 4
EC50 ratio ([4]; SSTR2 mutant N276^6.55A): 15
EC50 ratio ([4]; SSTR2 mutant P286^ECL3A): 7
EC50 ratio ([4]; SSTR2 mutant Q102^2.63A): 2
EC50 ratio ([4]; SSTR2 mutant Q126^3.36A): 3
EC50 ratio ([4]; SSTR2 mutant T194^ECL2A): 3
EC50 ratio ([4]; SSTR2 mutant T212^5.42A): 5
EC50 ratio ([4]; SSTR2 mutant V298^7.39A): 10
EC50 ratio ([4]; SSTR2 mutant Y205^5.35A): 0.05
EC50 ratio ([4]; SSTR2 mutant Y302^7.43A): 10
Span [5]: 131±9 % of WT
pEC50 ± SEM [5]: 8.68±0.16
pEC50 ± SEM [6]: 9.02±0.12
Span [7]: 96±7 % of WT
pEC50 ± SEM [7]: 8.83±0.18
Span [8]: 80±5 % of WT
pEC50 ± SEM [8]: 8.47±0.15
Span [9]: 84±7 % of WT
pEC50 ± SEM [9]: 9.07±0.22
Span [10]: 215±18 % of WT
pEC50 ± SEM [10]: 7.85±0.19
Span [11]: 41±6 % of WT
pEC50 ± SEM [11]: 7.37±0.27
Span [12]: 108±5 % of WT
pEC50 ± SEM [12]: 8.94±0.12
EC50 [13]: 0.01 nM
Span ([13]; mean ± SEM): 143±18 % of WT
Span [14]: 79±6 % of WT
pEC50 ± SEM [14]: 9.46±0.18
EC50 ratio ([15]; EC50(mutant)/EC50(WT)): 1
pEC50 ± SEM ([15]; HEK293F, mean ± SEM, at least three independent experiments): 9.67±0.08
Span ([15]; window between Emax and vehicle, mean ± SEM): 100±4 % of WT
Span [16]: 95±8 % of WT
pEC50 ± SEM [16]: 8.36±0.20
Span [17]: 82±6 % of WT
pEC50 ± SEM [17]: 9.18±0.17
Span [18]: 104±10 % of WT
pEC50 ± SEM [18]: 9.26±0.23
Span [19]: 96±8 % of WT
pEC50 ± SEM [19]: 8.67±0.19
Span [20]: 154±10 % of WT
pEC50 ± SEM [20]: 8.93±0.15
SMILES: C[C@@H](c1c[nH]c2ccccc12)[C@@H](NC(=O)N1CCC(n2c(=O)[nH]c3ccccc32)CC1)C(=O)N[C@@H](CCCCN)C(=O)OC(C)(C)C [L-054,522]
